Laboratory results reported in patent publication US6121287A, “Quinoline derivatives” (Active Biotech AB, priority 1999, dated 2000).
Where two headings read alike, the source gives them in different places.

Key:
[1] = test system: acute experimental autoimmune encephalomyelitis (aEAE); assay: inhibition of acute experimental autoimmune encephalomyelitis (aEAE) in mice; assay type: in vivo, mice (STUN female); settings: for % aEAE Inhibition: percent inhibition of clinical scores vs saline treated controls
beagle dogs = settings: different breeds of beagle dogs; cited from earlier work
[2] = test system: foetuses of pregnant female rats; settings: rat; background statement; cited from earlier work
multiple sclerosis = settings: cited from earlier work
cell-mediated immunity = settings: cited from earlier work
[3] = test system: foetuses of pregnant female rats; assay: Teratogenic Effects in the Rat; assay type: in vivo; settings: 6 mg/kg/day (dose given for the N-methyl-N-phenyl compound), subcutaneous, day 8 to 14 of pregnancy
Description: Teratogenic Effects in the Rat
The compounds were administrated subcutaneously to female rats during pregnancy, i.e., day 8 to 14 of pregnancy. The rats were caesarean sectioned and necropsied on day 20 after fertilization. The foetuses were examined for external and internal abnormalities.

CSc1ccc2c(c1)c(O)c(C(=O)N(C)c1ccc(F)cc1F)c(=O)n2C [Compound D, N-methyl-N-(2,4difluoro-phenyl)-l,2-dihydro-4-hydroxy-6-thiomethyl-1-methyl-2-oxo-quinoline-3-carboxamide]
% aEAE Inhibition ([1]; 0.2 mg/kg p.o.): 0% | % aEAE Inhibition ([1]; 1 mg/kg p.o.): 66%

CN(C(=O)c1c(O)c2ccccc2n(C)c1=O)c1ccccc1 [Roquinimex, roquinimex]
Beagle Pain Syndrome (BPS) induction (beagle dogs): induce the Beagle Pain Syndrome (BPS) | teratogenic effect [2]: teratogenic in the rat | clinical efficacy in conditions associated with MS (multiple sclerosis; clinical trials comparing roquinimex to placebo): hold promise in the treatment of conditions associated with MS | dose-limiting side effects in man (multiple sclerosis; man): induces dose-limiting side effects in man, e.g., a flu-like syndrome | inhibition of aEAE (treatment control) ([1]; at ≥5 mg/kg, mice): more than 50% | immunomodulatory activities (cell-mediated immunity): multiple immunomodulatory activities not accompanied with general immunosuppression

CSc1cccc2c1c(O)c(C(=O)N(C)c1ccccc1)c(=O)n2C [N-methyl-N-phenyl-1,2-dihydro-4-hydroxy-5-thiomethyl-1-methyl-2-oxo-quinoline-3-carboxamide]
teratogenic effect [3]: teratogenic

CCN(C(=O)c1c(O)c2cc(SC)ccc2n(C)c1=O)c1ccccc1 [Compound C, N-ethyl-N-phenyl-1,2-dihydro-4-hydroxy-6-thiomethyl-1-methyl-2-oxo-quinoline3-carboxamide]
% aEAE Inhibition ([1]; 0.04 mg/kg p.o.): 0% | % aEAE Inhibition ([1]; 0.2 mg/kg p.o.): 23%

CCN(C(=O)c1c(O)c2c(SC)cccc2n(C)c1=O)c1ccccc1 [Compound A, N-ethyl-N-phenyl-1,2-dihydro-4-hydroxy-5-thiomethyl-1-methyl-2-oxo-quinoline-3-carboxamide]
% aEAE Inhibition ([1]; 0.04 mg/kg p.o.): 28% | % aEAE Inhibition ([1]; 0.2 mg/kg p.o.): 49% | teratogenic effect [3]: non-teratogenic

CSc1cccc2c1c(O)c(C(=O)N(C)c1ccc(F)cc1F)c(=O)n2C [Compound B, N-methyl-N-(2,4-difluoro-phenyl)-1,2-dihydro-4-hydroxy-5-thiomethyl-1-methyl-2-oxo-quinoline-3-carboxamide]
% aEAE Inhibition ([1]; 0.2 mg/kg p.o.): 67% | % aEAE Inhibition ([1]; 1 mg/kg p.o.): 97% | teratogenic effect [3]: non-teratogenic
